Data reported in patent publication US9993462B2, “Hydantoin derivative-containing pharmaceutical composition” (Chugai Seiyaku Kabushiki Kaisha, priority 2014, dated 2018).
pEC50: −log10 of the molar value.

What was measured:
[1] = target: T1, human PTH1R (Homo sapiens, UniProt Q03431); assay: In vitro cAMP signal activity via the human PTH1R (HKRK-B7 cells); assay type: cell-based; details: human PTH(1-34) at 100 nM = 100%; for EC20: concentration at 20% cAMP signaling activity
T1 construct: expressed in transfected cells; host or cells: HKRK-B7 (LLC-PK1 porcine kidney cells stably expressing human PTH1R)
T1 sequence (Q03431 27-593): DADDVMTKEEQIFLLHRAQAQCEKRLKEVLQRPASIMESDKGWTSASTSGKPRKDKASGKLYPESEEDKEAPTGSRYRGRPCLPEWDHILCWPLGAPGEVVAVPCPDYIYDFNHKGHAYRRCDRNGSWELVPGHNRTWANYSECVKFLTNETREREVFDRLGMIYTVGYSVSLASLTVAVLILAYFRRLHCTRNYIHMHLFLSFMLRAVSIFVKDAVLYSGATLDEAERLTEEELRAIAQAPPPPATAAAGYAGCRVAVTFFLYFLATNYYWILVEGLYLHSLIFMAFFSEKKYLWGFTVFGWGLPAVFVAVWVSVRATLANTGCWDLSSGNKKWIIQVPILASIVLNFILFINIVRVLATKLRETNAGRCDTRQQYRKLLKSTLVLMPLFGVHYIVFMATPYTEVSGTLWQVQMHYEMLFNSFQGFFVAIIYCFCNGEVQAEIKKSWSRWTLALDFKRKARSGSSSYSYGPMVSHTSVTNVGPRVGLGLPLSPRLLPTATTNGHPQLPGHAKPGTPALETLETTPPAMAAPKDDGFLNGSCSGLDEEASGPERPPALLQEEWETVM
Method: Human PTH(1-34) and calcitonin were purchased from Peptide Institute, Inc. (Osaka, Japan), dissolved in 10 mM acetic acid to 1 mM and stored in a −80° C. freezer.
Cells were cultured in Dulbecco's modified Eagle's medium (DMEM) supplemented with 10% fetal bovine serum (Hyclone), 100 units/ml penicillin G and 100 μg/ml streptomycin sulfate (Invitrogen Corp) at 37° C. in a humidified atmosphere containing 5% CO2.
cAMP signal transduction analysis utilized LLC-PK1 cells not expressing the PTH1R, and HKRK-B7 cells, that is, LLC-PK1 cells overexpressing the human PTH1R at 9.5×10^5 receptors/cell (Takasu et al., J. Bone. Miner. Res. 14:11-20, 1999).
HKRK-B7 or LLC-PK1 cells were seeded into a 96-well plate at 1×10^5 cells/well and incubated overnight. On the following day, 50 μl of cAMP assay buffer (DMEM, 2 mM IBMX, 0.2 mg/ml bovine serum albumin, 35 mM Hepes-NaOH, pH 7.4) containing human PTH(1-34) or each compound was added and the plate was placed in a 37° C. incubator. The cells were incubated for 20 minutes. After removing the medium, the cells were washed with 100 μl of cAMP assay buffer once. The plate was placed on dry ice powder to freeze the cells and then removed from the dry ice. The cells were lysed with 40 μl of 50 mM HCl and frozen again on dry ice. The amount of intracellular cAMP produced was measured using a commercially available cAMP EIA kit (Biotrack cAMP EIA system, GE health care).
Analyses were performed using a variable gradient S-shaped dose-response curve equation.

[2] = system: TPTX rat; assay: Calcemic action in the TPTX rat model; assay type: in vivo; details: TPTX rats, 30 mg/kg oral; for change of serum Ca concentration from the Pre-value (in words): up to 24 hours after administration
Method: Four-week old female Crl:CD(SD) rats were obtained from Charles River Japan (Atsugi Breeding Center), and were acclimated to standard laboratory conditions of 20-26° C. and 35-75% humidity for one week. The rats were given tap water and were fed ad libitum with standard rodent chow (CE-2) (CLEA Japan, Inc.) containing 1.1% calcium, 1.0% phosphoric acid, and 250 IU/100 g of vitamin D3.
TPTX was performed on five-week old rats. Some of the individuals were subjected to sham operation (Sham). Individuals whose serum Ca concentration was less than 8 mg/dL on four days after the operation were selected for use as TPTX rats. On five days after the operation, the rats were assigned to eight TPTX groups and one Sham group (n=5, each group) based on their body weight and serum Ca concentration measured on four days after the operation. The solvent alone was orally administered to the Sham group and the TPTX-Vehicle group at a volume of 10 mL/kg. Each test article was orally administered individually to each TPTX test article group by dissolving it in a solvent at a dose of 30 mg/10 mL/kg. The solvent composition was 10% dimethylsulfoxide (Wako Pure Chemical Industries, Ltd.), 10% Cremophor EL (Sigma-Aldrich Japan LLC), 20% hydroxypropyl-β-cyclodextrin (Nihon Shokuhin Kako Co., Ltd.), glycine (Wako Pure Chemical Industries, Ltd.); and the pH was adjusted to 10. Immediately before administration of each sample, Pre-blood collection was performed, and blood collection was carried out at 2, 6, 10, and 24 hours after administration to measure the serum Ca concentration. Each blood collection was carried out from the jugular vein under isoflurane inhalation anesthesia.
Serum Ca measurement: Serum obtained by centrifugation from the collected blood was measured by using an automatic analyzer TBA-120FR (Toshiba Medical Systems Corporation).
For statistical analysis of the animal studies, data are shown as mean±standard error (SE). Statistical analysis were performed by unpaired test of the SAS Preclinical Package (Ver. 5.00.010720, SAS Institute Japan, Tokyo, Japan).

[3] = system: rat hepatocyte; assay: Metabolic stability using rat hepatocyte; assay type: in vitro ADME
Method: Liver cells were prepared from the liver of rats (SD, female) by a collagenase perfusion method. A compound of the Reference Examples or a Comparative Example was added, and this was incubated at 37° C. for a specified amount of time, followed by addition of a reaction-stopping solution. The concentration of the parent compound at each reaction time was measured using LC/MS/MS, and inherent clearance (μL/10^6 cells/min) was calculated from the slope of the reaction time versus residual rate.
• Cell concentration: 1×10^6 cells/mL • Compound concentration: 1 μM • Medium: Williams' medium E • Reaction time: 0, 15, 30, 60, 120, and 240 minutes • Reaction-stopping solution: acetonitrile/2-propanol (4/6, v/v)

| Structure (SMILES) | EC20 [1] [nM] | achievement of the therapeutic target range of serum Ca concentration of 7.6 to 8.8 mg/dL [2] | change of serum Ca concentration from the Pre-value (in words) [2] | rat hepatocyte metabolic stability compared to Comparative Examples 1, 2, 3, 5, and 6 (in words) [3] | pEC50 ([1]; concentration at 50% cAMP signaling activity) |
| --- | --- | --- | --- | --- | --- |
| Cc1cc(N2C(=O)NC(=O)C2(C)C)cc(C)c1CCS(=O)(=O)N1CCC2(CC1)N=C(c1ccc(F)c(OC(F)(F)F)c1)NC2=O [Compound 1, 1-(4-(2-((2-(4-fluoro-3-(trifluoromethoxy)phenyl)-4-oxo-1,3,8-triazaspiro[4.5]deca-1-en-8-yl)sulfonyl)ethyl)-3,5-dimethylphenyl)-5,5-dimethylimidazolidine-2,4-dione] | 1300 | could not be achieved | smaller positive changes from the Pre-value | – | – |
| CC[C@H]1CC[C@H](C2=NC3(CCN(S(=O)(=O)CCc4ccc(N5C(=O)NC(=O)C5(C)C)cc4C)CC3)C(=O)N2)CC1 [Comparative Example 6, reference compound] | 3600 | – | – | – | – |
| Cc1cc(N2C(=O)NC(=O)C2(C)C)cc(C)c1CCS(=O)(=O)N1CCC2(CC1)N=C(c1cccc(Br)c1)NC2=O [Compound 2, 1-(4-(2-((2-(3-bromophenyl)-4-oxo-1,3,8-triazaspiro[4.5]deca-1-en-8-yl)sulfonyl)ethyl)-3,5-dimethylphenyl)-5,5-dimethylimidazolidine-2,4-dione] | 2400 | – | – | increased | – |
| Cc1cc(N2C(=O)NC(=O)C23CCN(C)CC3)cc(C)c1CCS(=O)(=O)N1CCC2(CC1)N=C(c1ccc(OC(F)(F)F)cc1)NC2=O [Compound 9, 1-(3,5-dimethyl-4-(2-((4-oxo-2-(4-(trifluoromethoxy)phenyl)-1,3,8-triazaspiro[4.5]deca-1-en-8-yl)sulfonyl)ethyl)phenyl)-8-methyl-1,3,8-triazaspiro[4.5]decane-2,4-dione] | 2600 | – | – | increased | – |
| CCC1CCC(C2=NC3(CCN(S(=O)(=O)CCc4ccc(N5CC(=O)NC5=O)cc4C)CC3)C(=O)N2)CC1 (stereo not drawn) [Comparative Example 4, reference compound] | >505000 | – | – | – | – |
| Cc1cc(N2C(=O)NC(=O)C2(C)C)cc(C)c1CCS(=O)(=O)N1CCC2(CC1)N=C(c1ccc(OC(F)(F)F)c(F)c1)NC2=O [Compound 4, 1-(4-(2-((2-(3-fluoro-4-(trifluoromethoxy)phenyl)-4-oxo-1,3,8-triazaspiro[4.5]deca-1-en-8-yl)sulfonyl)ethyl)-3,5-dimethylphenyl)-5,5-dimethylimidazolidine-2,4-dione] | 1600 | – | – | increased | – |
| Cc1cc(N2C(=O)NC(=O)C2(C)C)cc(C)c1CCS(=O)(=O)N1CCC2(CC1)N=C(c1cccc(C(F)(F)F)c1)NC2=O [Compound 6, 1-(3,5-dimethyl-4-(2-((4-oxo-2-(3-(trifluoromethyl)phenyl)-1,3,8-triazaspiro[4.5]deca-1-en-8-yl)sulfonyl)ethyl)phenyl)-5,5-dimethylimidazolidine-2,4-dione] | 2000 | achieved the therapeutic target range | large positive changes from the Pre-value | increased | – |
| Cc1cc(N2C(=O)NC(=O)C2(C)C)cc(C)c1CCS(=O)(=O)N1CCC2(CC1)N=C(c1ccc3c(c1)OC(F)(F)O3)NC2=O [Compound 5, 1-(4-(2-((2-(2,2-difluorobenzo[d][1,3]dioxol-5-yl)-4-oxo-1,3,8-triazaspiro[4.5]deca-1-en-8-yl)sulfonyl)ethyl)-3,5-dimethylphenyl)-5,5-dimethylimidazolidine-2,4-dione] | 1700 | – | – | increased | – |
| CC[C@H]1CC[C@H](C2=NC3(CCN(S(=O)(=O)CCc4ccc(N5C(=O)NC(=O)C5C)cc4C)CC3)C(=O)N2)CC1 (stereo partly drawn) [Comparative Example 5, reference compound] | 3100 | – | – | – | – |
| Cc1cc(N2C(=O)CNC2=O)cc(C)c1CCS(=O)(=O)N1CCC2(CC1)N=C(c1ccc(F)c(C(F)(F)F)c1)NC2=O [Comparative Example 3, reference compound] | 2000 | – | – | – | – |
| Cc1cc(N2C(=O)CNC2=O)cc(C)c1CCS(=O)(=O)N1CCC2(CC1)N=C(c1cccc(OC(F)(F)F)c1)NC2=O [Comparative Example 2, reference compound] | 3100 | could not be achieved | smaller positive changes from the Pre-value | – | – |
| Cc1cc(N2C(=O)NC(=O)C2(C)C)cc(C)c1CCS(=O)(=O)N1CCC2(CC1)N=C(c1ccc(F)c(C(F)(F)F)c1)NC2=O [Compound 3, 1-(4-(2-((2-(4-fluoro-3-(trifluoromethyl)phenyl)-4-oxo-1,3,8-triazaspiro[4.5]deca-1-en-8-yl)sulfonyl)ethyl)-3,5-dimethylphenyl)-5,5-dimethylimidazolidine-2,4-dione] | 1500 | – | – | – | 5.14 |
